Measured values reported in the supplement of paper PMC12463676, “Small-molecule dissolution of stress granules by redox modulation benefits ALS models” (Nature Chemical Biology, 2025).

compound: NC(=O)CCCCC1CCSS1 [lipoamide]; assay: thermal stability z-score vs DMSO; higher = more thermally stabilized by treatment; details: HeLa; lipoamide concentration 100 µM; arsenate co-treatment: 1 mM arsenate 1 h
Method: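 Cellular thermal proteome profiling in HeLa cells. Cells were treated with 100 µM lipoamide for 1 h, with or without 1 mM arsenate for a further 1 h, then heated to ten temperatures (37-66.3 °C), and soluble protein was quantified by TMT mass spectrometry relative to 0.1% DMSO controls. The thermal stability score (sum of log2 fold changes minus the abundance score) was transformed to a z-score; mean of n = 3 experiments.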
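Also: each temperature applied for 3 min, abundance score taken as mean log2 fold change at the two lowest temperatures, z-score obtained by mean subtraction and division by SD.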

Sequence of UniProt Q8WUM9 (Q8WUM9 whole entry): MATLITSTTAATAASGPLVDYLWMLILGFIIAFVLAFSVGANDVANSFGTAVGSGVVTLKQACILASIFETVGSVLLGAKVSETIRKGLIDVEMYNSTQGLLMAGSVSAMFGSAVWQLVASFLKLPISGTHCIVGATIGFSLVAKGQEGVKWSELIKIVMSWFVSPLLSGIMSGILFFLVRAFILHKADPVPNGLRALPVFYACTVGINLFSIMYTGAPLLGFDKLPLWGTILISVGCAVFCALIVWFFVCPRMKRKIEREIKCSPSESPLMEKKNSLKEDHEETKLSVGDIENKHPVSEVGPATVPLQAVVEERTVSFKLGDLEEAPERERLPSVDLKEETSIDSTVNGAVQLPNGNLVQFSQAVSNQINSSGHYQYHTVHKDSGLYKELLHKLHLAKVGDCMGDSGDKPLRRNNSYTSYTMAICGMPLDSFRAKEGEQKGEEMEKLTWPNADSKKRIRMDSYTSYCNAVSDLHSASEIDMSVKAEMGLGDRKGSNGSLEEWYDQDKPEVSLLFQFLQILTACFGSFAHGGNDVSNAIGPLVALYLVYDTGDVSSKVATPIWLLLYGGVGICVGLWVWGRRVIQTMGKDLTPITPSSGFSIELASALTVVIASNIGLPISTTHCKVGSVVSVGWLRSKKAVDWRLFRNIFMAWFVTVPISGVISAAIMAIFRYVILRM
Sequence of UniProt Q96FV2 (Q96FV2 whole entry): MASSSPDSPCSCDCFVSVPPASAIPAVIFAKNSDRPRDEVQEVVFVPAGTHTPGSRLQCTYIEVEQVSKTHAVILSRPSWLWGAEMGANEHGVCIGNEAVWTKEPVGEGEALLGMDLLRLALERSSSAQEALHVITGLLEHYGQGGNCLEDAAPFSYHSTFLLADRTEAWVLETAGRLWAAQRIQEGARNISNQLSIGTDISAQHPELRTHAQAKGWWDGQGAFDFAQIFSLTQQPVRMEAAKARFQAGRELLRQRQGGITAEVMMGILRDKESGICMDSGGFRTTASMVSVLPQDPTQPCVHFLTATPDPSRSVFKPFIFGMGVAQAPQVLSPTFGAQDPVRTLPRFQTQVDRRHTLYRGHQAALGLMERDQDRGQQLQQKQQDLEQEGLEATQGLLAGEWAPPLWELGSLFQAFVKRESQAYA
Sequence of UniProt O94967 (O94967 whole entry): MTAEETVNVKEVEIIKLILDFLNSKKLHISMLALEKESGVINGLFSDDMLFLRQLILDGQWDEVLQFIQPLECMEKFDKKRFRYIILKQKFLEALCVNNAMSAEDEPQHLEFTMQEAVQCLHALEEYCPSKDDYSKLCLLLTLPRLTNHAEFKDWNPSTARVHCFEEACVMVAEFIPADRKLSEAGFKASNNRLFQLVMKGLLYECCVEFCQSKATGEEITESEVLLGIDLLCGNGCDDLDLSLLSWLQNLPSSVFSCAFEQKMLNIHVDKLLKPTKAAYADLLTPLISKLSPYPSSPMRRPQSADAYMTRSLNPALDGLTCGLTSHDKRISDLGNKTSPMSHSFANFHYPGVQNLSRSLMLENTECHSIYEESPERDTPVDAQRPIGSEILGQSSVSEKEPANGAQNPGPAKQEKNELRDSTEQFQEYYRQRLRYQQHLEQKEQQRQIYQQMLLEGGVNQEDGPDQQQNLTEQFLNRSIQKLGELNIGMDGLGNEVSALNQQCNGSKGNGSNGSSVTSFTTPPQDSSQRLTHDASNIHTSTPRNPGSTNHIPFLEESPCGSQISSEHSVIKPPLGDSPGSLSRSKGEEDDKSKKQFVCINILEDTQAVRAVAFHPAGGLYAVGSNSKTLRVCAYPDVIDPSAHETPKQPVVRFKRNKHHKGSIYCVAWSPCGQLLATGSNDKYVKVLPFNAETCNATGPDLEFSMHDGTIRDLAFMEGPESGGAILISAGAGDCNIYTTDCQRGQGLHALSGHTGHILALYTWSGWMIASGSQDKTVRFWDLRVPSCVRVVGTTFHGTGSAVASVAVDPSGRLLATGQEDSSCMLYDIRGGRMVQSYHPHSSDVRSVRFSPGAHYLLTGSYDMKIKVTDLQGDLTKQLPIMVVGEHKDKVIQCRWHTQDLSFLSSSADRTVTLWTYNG
Sequence of UniProt Q8TEA7 (Q8TEA7 whole entry): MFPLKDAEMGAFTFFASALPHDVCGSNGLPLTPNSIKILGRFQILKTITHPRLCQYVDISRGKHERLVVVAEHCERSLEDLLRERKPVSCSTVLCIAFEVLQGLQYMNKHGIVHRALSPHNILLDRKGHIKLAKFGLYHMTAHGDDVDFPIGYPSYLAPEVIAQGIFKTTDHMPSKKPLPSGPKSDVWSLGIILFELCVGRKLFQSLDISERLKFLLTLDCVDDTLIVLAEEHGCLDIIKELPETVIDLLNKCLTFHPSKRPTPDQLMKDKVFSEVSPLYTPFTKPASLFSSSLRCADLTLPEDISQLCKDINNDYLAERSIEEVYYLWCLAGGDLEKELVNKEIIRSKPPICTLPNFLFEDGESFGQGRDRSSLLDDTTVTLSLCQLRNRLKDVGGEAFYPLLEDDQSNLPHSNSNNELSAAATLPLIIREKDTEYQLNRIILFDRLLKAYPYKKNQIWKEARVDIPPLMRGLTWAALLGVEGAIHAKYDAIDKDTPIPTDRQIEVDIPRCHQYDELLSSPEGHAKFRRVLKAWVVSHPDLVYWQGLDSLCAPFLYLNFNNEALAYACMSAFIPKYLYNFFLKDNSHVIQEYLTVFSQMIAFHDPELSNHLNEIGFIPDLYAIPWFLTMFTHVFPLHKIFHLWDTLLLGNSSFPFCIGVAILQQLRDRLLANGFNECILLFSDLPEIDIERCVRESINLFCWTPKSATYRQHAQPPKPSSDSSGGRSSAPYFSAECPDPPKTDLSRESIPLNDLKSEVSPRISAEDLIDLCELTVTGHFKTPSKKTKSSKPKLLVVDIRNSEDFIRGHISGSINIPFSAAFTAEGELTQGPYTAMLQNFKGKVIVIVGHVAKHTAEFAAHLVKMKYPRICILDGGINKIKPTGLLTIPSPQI
Sequence of UniProt O75608 (O75608 whole entry): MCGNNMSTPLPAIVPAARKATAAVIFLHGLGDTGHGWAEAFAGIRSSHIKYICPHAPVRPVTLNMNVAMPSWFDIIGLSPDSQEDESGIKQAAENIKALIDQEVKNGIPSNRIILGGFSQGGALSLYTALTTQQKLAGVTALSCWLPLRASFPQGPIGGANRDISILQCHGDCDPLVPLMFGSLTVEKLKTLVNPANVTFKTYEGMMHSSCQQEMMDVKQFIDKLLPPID
Sequence of UniProt P49720 (P49720 whole entry): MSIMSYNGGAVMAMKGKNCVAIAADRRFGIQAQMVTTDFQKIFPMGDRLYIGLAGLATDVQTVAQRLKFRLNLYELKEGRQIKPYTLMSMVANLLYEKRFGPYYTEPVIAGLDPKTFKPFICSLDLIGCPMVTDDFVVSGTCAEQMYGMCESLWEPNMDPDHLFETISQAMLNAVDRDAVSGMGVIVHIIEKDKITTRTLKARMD
Sequence of UniProt P40939 (P40939 whole entry): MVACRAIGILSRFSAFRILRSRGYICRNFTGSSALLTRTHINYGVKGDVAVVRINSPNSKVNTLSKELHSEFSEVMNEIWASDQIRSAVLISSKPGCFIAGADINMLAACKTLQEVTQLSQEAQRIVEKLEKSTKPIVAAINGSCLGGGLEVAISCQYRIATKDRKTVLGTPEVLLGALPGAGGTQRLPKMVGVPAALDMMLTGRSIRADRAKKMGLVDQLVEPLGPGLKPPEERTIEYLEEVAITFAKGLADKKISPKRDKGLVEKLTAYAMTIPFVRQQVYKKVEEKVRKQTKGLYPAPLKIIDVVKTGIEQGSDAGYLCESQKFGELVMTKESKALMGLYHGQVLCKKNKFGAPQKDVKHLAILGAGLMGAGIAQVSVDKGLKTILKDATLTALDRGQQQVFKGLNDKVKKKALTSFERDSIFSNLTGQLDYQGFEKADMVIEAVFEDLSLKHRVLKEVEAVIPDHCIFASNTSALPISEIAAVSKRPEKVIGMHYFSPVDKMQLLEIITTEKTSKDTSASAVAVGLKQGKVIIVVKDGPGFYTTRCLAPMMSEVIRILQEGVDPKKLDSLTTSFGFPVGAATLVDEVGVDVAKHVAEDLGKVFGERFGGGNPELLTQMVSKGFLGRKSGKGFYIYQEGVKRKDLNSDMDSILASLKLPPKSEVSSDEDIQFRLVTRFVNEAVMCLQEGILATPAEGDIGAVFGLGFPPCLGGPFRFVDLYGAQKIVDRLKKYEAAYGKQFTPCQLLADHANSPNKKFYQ
Sequence of UniProt Q96MV1 (Q96MV1 whole entry): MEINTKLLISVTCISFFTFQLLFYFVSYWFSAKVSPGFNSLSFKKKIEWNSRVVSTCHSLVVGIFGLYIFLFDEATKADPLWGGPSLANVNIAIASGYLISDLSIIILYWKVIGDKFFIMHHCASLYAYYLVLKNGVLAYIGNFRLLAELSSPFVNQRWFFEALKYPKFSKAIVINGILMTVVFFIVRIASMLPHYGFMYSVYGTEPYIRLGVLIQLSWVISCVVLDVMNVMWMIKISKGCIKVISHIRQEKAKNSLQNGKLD
Sequence of UniProt Q8NFJ5 (Q8NFJ5 whole entry): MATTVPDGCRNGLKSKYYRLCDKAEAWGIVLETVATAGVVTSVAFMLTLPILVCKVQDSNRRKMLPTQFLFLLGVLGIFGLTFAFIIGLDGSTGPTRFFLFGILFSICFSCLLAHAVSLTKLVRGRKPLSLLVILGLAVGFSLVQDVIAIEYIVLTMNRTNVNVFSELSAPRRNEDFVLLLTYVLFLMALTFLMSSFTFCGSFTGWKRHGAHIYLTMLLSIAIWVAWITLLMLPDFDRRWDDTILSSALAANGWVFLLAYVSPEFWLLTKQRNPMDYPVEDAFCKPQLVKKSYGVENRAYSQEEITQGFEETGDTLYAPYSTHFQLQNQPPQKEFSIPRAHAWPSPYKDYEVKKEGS
Sequence of UniProt P62318 (P62318 whole entry): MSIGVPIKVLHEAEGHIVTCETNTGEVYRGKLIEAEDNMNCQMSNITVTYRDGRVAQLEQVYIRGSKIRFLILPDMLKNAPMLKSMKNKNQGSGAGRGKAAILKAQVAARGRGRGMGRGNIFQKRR
Sequence of UniProt P04080 (P04080 whole entry): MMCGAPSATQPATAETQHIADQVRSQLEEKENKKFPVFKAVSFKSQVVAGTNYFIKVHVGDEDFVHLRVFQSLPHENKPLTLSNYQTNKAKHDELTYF

Question: How did the thermal stability z-score turn out when ALDH3B1 (UniProt P43353) was run?
Answer: -0.215

Question: FASTKD1 (UniProt Q53R41) was tested. Which thermal stability z-score did it give?
Answer: -0.195

Question: Which thermal stability z-score does the source give for SNRPD3 (UniProt P62318) here?
Answer: 0.93

Question: TBCK (UniProt Q8TEA7) was tested. Which thermal stability z-score did it give?
Answer: 0.135

Question: With PHLDB1 (UniProt Q86UU1) as the target, how does the thermal stability z-score read?
Answer: -0.559

Question: How did the thermal stability z-score turn out when NLRX1 (UniProt Q86UT6) was run?
Answer: 0.128

Question: For NAT10 (UniProt Q9H0A0), which thermal stability z-score is on record?
Answer: 0.444

Question: Which thermal stability z-score does the source give for CCDC91 (UniProt Q7Z6B0) here?
Answer: 0.136

Question: ZWINT (UniProt O95229) was tested. Which thermal stability z-score did it give?
Answer: 0.0176

Question: For FAHD2A (UniProt Q96GK7), which thermal stability z-score is on record?
Answer: 0.146

Question: Which thermal stability z-score does the source give for UBE2I (UniProt P63279) here?
Answer: -0.334

Question: Which thermal stability z-score does the source give for GPRC5A (UniProt Q8NFJ5) here?
Answer: 0.158

Question: Which thermal stability z-score does the source give for AP4E1 (UniProt Q9UPM8) here?
Answer: -0.117

Question: Which thermal stability z-score does the source give for TMEM56 (UniProt Q96MV1) here?
Answer: 0.138

Question: HADHA (UniProt P40939) was tested. Which thermal stability z-score did it give?
Answer: -0.0579

Question: How did the thermal stability z-score turn out when TP53I3 (UniProt Q53FA7) was run?
Answer: 0.135

Question: WDR47 (UniProt O94967) was tested. Which thermal stability z-score did it give?
Answer: 0.51

Question: EVL (UniProt Q9UI08) was tested. Which thermal stability z-score did it give?
Answer: -0.0697

Question: How did the thermal stability z-score turn out when SYDE1 (UniProt Q6ZW31) was run?
Answer: -0.177

Question: How did the thermal stability z-score turn out when LYPLA1 (UniProt O75608) was run?
Answer: 0.624

Question: How did the thermal stability z-score turn out when ACAP2 (UniProt Q15057) was run?
Answer: -0.177

Question: With BRAP (UniProt Q7Z569) as the target, how does the thermal stability z-score read?
Answer: -0.31

Question: NRBF2 (UniProt Q96F24) was tested. Which thermal stability z-score did it give?
Answer: 0.638

Question: For TMEM59 (UniProt Q9BXS4), which thermal stability z-score is on record?
Answer: -1.01

Question: Which thermal stability z-score does the source give for AVL9 (UniProt Q8NBF6) here?
Answer: 0.0764

Question: SLC20A1 (UniProt Q8WUM9) was tested. Which thermal stability z-score did it give?
Answer: 0.249

Question: How did the thermal stability z-score turn out when NUMA1 (UniProt Q14980) was run?
Answer: 0.34

Question: TXNDC12 (UniProt O95881) was tested. Which thermal stability z-score did it give?
Answer: -1.11

Question: Which thermal stability z-score does the source give for R3HCC1 (UniProt Q9Y3T6) here?
Answer: 0.183

Question: For COPS2 (UniProt P61201), which thermal stability z-score is on record?
Answer: 0.538

Question: How did the thermal stability z-score turn out when PSMB3 (UniProt P49720) was run?
Answer: 1.04

Question: With SCRN2 (UniProt Q96FV2) as the target, how does the thermal stability z-score read?
Answer: 0.553

Question: For PPP1R18 (UniProt Q6NYC8), which thermal stability z-score is on record?
Answer: -0.336

Question: With GNL2 (UniProt Q13823) as the target, how does the thermal stability z-score read?
Answer: -0.195

Question: With ADCK1 (UniProt Q86TW2) as the target, how does the thermal stability z-score read?
Answer: 0.36

Question: For ATG9A (UniProt Q7Z3C6), which thermal stability z-score is on record?
Answer: -0.389

Question: For BACH1 (UniProt O14867), which thermal stability z-score is on record?
Answer: -0.551

Question: For NDUFA4 (UniProt O00483), which thermal stability z-score is on record?
Answer: 0.551

Question: STRBP (UniProt Q96SI9) was tested. Which thermal stability z-score did it give?
Answer: 0.867

Question: For PAK4 (UniProt O96013), which thermal stability z-score is on record?
Answer: -0.224

Question: Which thermal stability z-score does the source give for IGBP1 (UniProt P78318) here?
Answer: 0.172

Question: KDM3B (UniProt Q7LBC6) was tested. Which thermal stability z-score did it give?
Answer: 0.258

Question: How did the thermal stability z-score turn out when TIMP2 (UniProt P16035) was run?
Answer: -0.833

Question: How did the thermal stability z-score turn out when IGSF8 (UniProt Q969P0) was run?
Answer: 0.26

Question: With PRMT9 (UniProt Q6P2P2) as the target, how does the thermal stability z-score read?
Answer: 0.25

Question: With NEK6 (UniProt Q9HC98) as the target, how does the thermal stability z-score read?
Answer: -0.181

Question: How did the thermal stability z-score turn out when SNX3 (UniProt O60493) was run?
Answer: -0.62

Question: USP14 (UniProt P54578) was tested. Which thermal stability z-score did it give?
Answer: 0.406

Question: TSSC4 (UniProt Q9Y5U2) was tested. Which thermal stability z-score did it give?
Answer: 1.17

Question: With SLC25A32 (UniProt Q9H2D1) as the target, how does the thermal stability z-score read?
Answer: -0.958

Question: How did the thermal stability z-score turn out when AKAP8 (UniProt O43823) was run?
Answer: 0.701

Question: How did the thermal stability z-score turn out when HDLBP (UniProt Q00341) was run?
Answer: -0.35

Question: Which thermal stability z-score does the source give for CALCOCO1 (UniProt Q9P1Z2) here?
Answer: 0.179

Question: MORF4L1 (UniProt Q9UBU8) was tested. Which thermal stability z-score did it give?
Answer: -0.486

Question: SUMF1 (UniProt Q8NBK3) was tested. Which thermal stability z-score did it give?
Answer: -1

Question: Which thermal stability z-score does the source give for CSTB (UniProt P04080) here?
Answer: 0.399

Question: With SHCBP1 (UniProt Q8NEM2) as the target, how does the thermal stability z-score read?
Answer: 0.0159

Question: Which thermal stability z-score does the source give for UFSP2 (UniProt Q9NUQ7) here?
Answer: -1.19

Question: With AMMECR1 (UniProt Q9Y4X0) as the target, how does the thermal stability z-score read?
Answer: -0.157

Question: With NF2 (UniProt P35240) as the target, how does the thermal stability z-score read?
Answer: 0.402

Question: Which thermal stability z-score does the source give for PEX5 (UniProt P50542) here?
Answer: -0.624

Question: How did the thermal stability z-score turn out when REEP5 (UniProt Q00765) was run?
Answer: 0.359

Question: With BLZF1 (UniProt Q9H2G9) as the target, how does the thermal stability z-score read?
Answer: -0.0966

Question: How did the thermal stability z-score turn out when NPEPL1 (UniProt Q8NDH3) was run?
Answer: -0.24

Question: For PREX1 (UniProt Q8TCU6), which thermal stability z-score is on record?
Answer: 0.02

Question: FBXO21 (UniProt O94952) was tested. Which thermal stability z-score did it give?
Answer: -0.226

Question: MRPL42 (UniProt Q9Y6G3) was tested. Which thermal stability z-score did it give?
Answer: -1.07

Question: Which thermal stability z-score does the source give for FEN1 (UniProt P39748) here?
Answer: -0.489

Question: Which thermal stability z-score does the source give for SAMD9 (UniProt Q5K651) here?
Answer: -0.0476

Question: With AP1G1 (UniProt O43747) as the target, how does the thermal stability z-score read?
Answer: -0.704

Question: Which thermal stability z-score does the source give for PAFAH1B1 (UniProt P43034) here?
Answer: 0.258

same assay, conditions: HeLa; lipoamide concentration 100 µM; arsenate co-treatment: none

Question: For ALDH3B1 (UniProt P43353), which thermal stability z-score is on record?
Answer: 0.338

Question: Which thermal stability z-score does the source give for FASTKD1 (UniProt Q53R41) here?
Answer: -0.378

Question: With SNRPD3 (UniProt P62318) as the target, how does the thermal stability z-score read?
Answer: 0.207

Question: With TBCK (UniProt Q8TEA7) as the target, how does the thermal stability z-score read?
Answer: 0.0192

Question: Which thermal stability z-score does the source give for PHLDB1 (UniProt Q86UU1) here?
Answer: 0.362

Question: Which thermal stability z-score does the source give for NLRX1 (UniProt Q86UT6) here?
Answer: 0.211

Question: How did the thermal stability z-score turn out when NAT10 (UniProt Q9H0A0) was run?
Answer: -0.105

Question: How did the thermal stability z-score turn out when CCDC91 (UniProt Q7Z6B0) was run?
Answer: 0.181

Question: Which thermal stability z-score does the source give for ZWINT (UniProt O95229) here?
Answer: -0.0608

Question: For FAHD2A (UniProt Q96GK7), which thermal stability z-score is on record?
Answer: -0.0859

Question: How did the thermal stability z-score turn out when UBE2I (UniProt P63279) was run?
Answer: 0.315

Question: With GPRC5A (UniProt Q8NFJ5) as the target, how does the thermal stability z-score read?
Answer: -0.194

Question: Which thermal stability z-score does the source give for AP4E1 (UniProt Q9UPM8) here?
Answer: -0.092

Question: With TMEM56 (UniProt Q96MV1) as the target, how does the thermal stability z-score read?
Answer: 1.15

Question: Which thermal stability z-score does the source give for HADHA (UniProt P40939) here?
Answer: 0.088

Question: With TP53I3 (UniProt Q53FA7) as the target, how does the thermal stability z-score read?
Answer: -0.155

Question: For WDR47 (UniProt O94967), which thermal stability z-score is on record?
Answer: 0.317

Question: With EVL (UniProt Q9UI08) as the target, how does the thermal stability z-score read?
Answer: 0.187

Question: With SYDE1 (UniProt Q6ZW31) as the target, how does the thermal stability z-score read?
Answer: -0.208

Question: Which thermal stability z-score does the source give for LYPLA1 (UniProt O75608) here?
Answer: -0.159

Question: For ACAP2 (UniProt Q15057), which thermal stability z-score is on record?
Answer: 0.0236

Question: With BRAP (UniProt Q7Z569) as the target, how does the thermal stability z-score read?
Answer: 0.051

Question: NRBF2 (UniProt Q96F24) was tested. Which thermal stability z-score did it give?
Answer: 0.117

Question: TMEM59 (UniProt Q9BXS4) was tested. Which thermal stability z-score did it give?
Answer: -0.383

Question: Which thermal stability z-score does the source give for AVL9 (UniProt Q8NBF6) here?
Answer: 0.143

Question: SLC20A1 (UniProt Q8WUM9) was tested. Which thermal stability z-score did it give?
Answer: 0.0269

Question: For NUMA1 (UniProt Q14980), which thermal stability z-score is on record?
Answer: 0.207

Question: For TXNDC12 (UniProt O95881), which thermal stability z-score is on record?
Answer: -1.37

Question: Which thermal stability z-score does the source give for R3HCC1 (UniProt Q9Y3T6) here?
Answer: 0.233

Question: How did the thermal stability z-score turn out when COPS2 (UniProt P61201) was run?
Answer: -0.0451

Question: With PSMB3 (UniProt P49720) as the target, how does the thermal stability z-score read?
Answer: 0.994

Question: SCRN2 (UniProt Q96FV2) was tested. Which thermal stability z-score did it give?
Answer: -0.0583

Question: For PPP1R18 (UniProt Q6NYC8), which thermal stability z-score is on record?
Answer: 0.0646

Question: For GNL2 (UniProt Q13823), which thermal stability z-score is on record?
Answer: -0.0312

Question: For ADCK1 (UniProt Q86TW2), which thermal stability z-score is on record?
Answer: -0.122
